According to ChEMBL document CHEMBL5360581, “Discovery of a novel dual functional phenylpyrazole-styryl hybrid that induces apoptotic and autophagic cell death in bladder cancer cells” (Eur J Med Chem, 2023):
Activity calls are given as the source filed them. No cut-off for these calls is given here.

system: not listed separately; assay: Selectivity index, ratio of IC50 for cytotoxicity against human NHDF cells to IC50 for cytotoxicity against human HT-1080 cells; settings: not given

| Compound | Ratio IC50 |
| --- | --- |
| Oc1ccc(Cl)cc1-c1cc(/C=C/c2cccc(Cl)c2)nn1-c1ccccc1 | 1.2 |
| COc1ccc(/C=C/c2cc(-c3cc(Cl)ccc3O)n(-c3ccccc3)n2)cc1OC | 2.5 |
| O=c1[nH]cc(F)c(=O)[nH]1 [FLUOROURACIL] | 1.5 |
| Oc1ccccc1-c1cc(/C=C/c2ccc(Cl)s2)nn1-c1ccccc1 | 1.1 |

system: EJ-28; assay: Antiproliferative activity against human EJ-28 cells assessed as reduction in cell viability at 20 uM measured for 72 hrs by MTT assay; format: functional, cell-based; settings: not given

| Compound | Activity |
| --- | --- |
| Oc1ccc(Cl)cc1-c1cc(/C=C/c2cccc(Cl)c2)nn1-c1ccccc1 | Active |
| COc1ccc(/C=C/c2cc(-c3cc(Cl)ccc3O)n(-c3ccccc3)n2)cc1OC | Active |
| Oc1ccccc1-c1cc(/C=C/c2ccc(Cl)s2)nn1-c1ccccc1 | Active |

system: HT-1080; assay: Cytotoxicity against human HT-1080 cells assessed inhibition of cell growth incubated for 72 hrs by MTT assay; format: functional, cell-based; settings: HT-1080, 72 h

| Compound | IC50 [µM] |
| --- | --- |
| Oc1ccc(Cl)cc1-c1cc(/C=C/c2cccc(Cl)c2)nn1-c1ccccc1 | 12.4 |
| COc1ccc(/C=C/c2cc(-c3cc(Cl)ccc3O)n(-c3ccccc3)n2)cc1OC | 14.5 |
| O=c1[nH]cc(F)c(=O)[nH]1 [FLUOROURACIL] | 6 |
| Oc1ccccc1-c1cc(/C=C/c2ccc(Cl)s2)nn1-c1ccccc1 | 17.3 |

system: EJ-28; assay: Cytotoxicity against human EJ-28 cells assessed inhibition of cell growth incubated for 72 hrs by MTT assay; format: functional, cell-based; settings: EJ-28, 72 h

| Compound | IC50 [µM] |
| --- | --- |
| Oc1ccc(Cl)cc1-c1cc(/C=C/c2cccc(Cl)c2)nn1-c1ccccc1 | 3.7 |
| COc1ccc(/C=C/c2cc(-c3cc(Cl)ccc3O)n(-c3ccccc3)n2)cc1OC | 17.6 |
| O=c1[nH]cc(F)c(=O)[nH]1 [FLUOROURACIL] | 11.4 |
| Oc1ccccc1-c1cc(/C=C/c2ccc(Cl)s2)nn1-c1ccccc1 | 13.6 |

system: not listed separately; assay: Selectivity index, ratio of IC50 for cytotoxicity against human NHDF cells to IC50 for cytotoxicity against human A549 cells; format: toxicity, cell-based; settings: NHDF cells and A549 cells, read-out: Ratio IC50

| Compound | selectivity ratio |
| --- | --- |
| Oc1ccc(Cl)cc1-c1cc(/C=C/c2cccc(Cl)c2)nn1-c1ccccc1 | 1.2 |
| COc1ccc(/C=C/c2cc(-c3cc(Cl)ccc3O)n(-c3ccccc3)n2)cc1OC | 2.5 |
| Oc1ccccc1-c1cc(/C=C/c2ccc(Cl)s2)nn1-c1ccccc1 | 1.1 |

system: A549; assay: Antiproliferative activity against human A549 cells assessed as reduction in cell viability at 20 uM measured for 72 hrs by MTT assay; format: functional, cell-based; settings: not given

| Compound | Activity |
| --- | --- |
| Oc1ccc(Cl)cc1-c1cc(/C=C/c2cccc(Cl)c2)nn1-c1ccccc1 | Active |
| COc1ccc(/C=C/c2cc(-c3cc(Cl)ccc3O)n(-c3ccccc3)n2)cc1OC | Active |
| Oc1ccccc1-c1cc(/C=C/c2ccc(Cl)s2)nn1-c1ccccc1 | Active |

system: SW-620; assay: Antiproliferative activity against human SW620 cells assessed as reduction in cell viability at 20 uM measured for 72 hrs by MTT assay; format: functional, cell-based; settings: not given

| Compound | Activity |
| --- | --- |
| Oc1ccc(Cl)cc1-c1cc(/C=C/c2cccc(Cl)c2)nn1-c1ccccc1 | Active |
| COc1ccc(/C=C/c2cc(-c3cc(Cl)ccc3O)n(-c3ccccc3)n2)cc1OC | Active |
| Oc1ccccc1-c1cc(/C=C/c2ccc(Cl)s2)nn1-c1ccccc1 | Active |

system: not listed separately; assay: Selectivity index, ratio of IC50 for cytotoxicity against human NHDF cells to IC50 for cytotoxicity against human EJ-28 cells; settings: not given

| Compound | Ratio IC50 |
| --- | --- |
| Oc1ccc(Cl)cc1-c1cc(/C=C/c2cccc(Cl)c2)nn1-c1ccccc1 | 1.2 |
| COc1ccc(/C=C/c2cc(-c3cc(Cl)ccc3O)n(-c3ccccc3)n2)cc1OC | 2.5 |
| O=c1[nH]cc(F)c(=O)[nH]1 [FLUOROURACIL] | 1.5 |
| Oc1ccccc1-c1cc(/C=C/c2ccc(Cl)s2)nn1-c1ccccc1 | 1.1 |

system: not listed separately; assay: Selectivity index, ratio of IC50 for cytotoxicity against human NHDF cells to IC50 for cytotoxicity against human SW620 cells; settings: not given

| Compound | Ratio IC50 |
| --- | --- |
| Oc1ccc(Cl)cc1-c1cc(/C=C/c2cccc(Cl)c2)nn1-c1ccccc1 | 1.2 |
| COc1ccc(/C=C/c2cc(-c3cc(Cl)ccc3O)n(-c3ccccc3)n2)cc1OC | 2.5 |
| O=c1[nH]cc(F)c(=O)[nH]1 [FLUOROURACIL] | 1.5 |
| Oc1ccccc1-c1cc(/C=C/c2ccc(Cl)s2)nn1-c1ccccc1 | 0.9 |

system: MCF7; assay: Antiproliferative activity against human MCF7 cells assessed as reduction in cell viability at 20 uM measured for 72 hrs by MTT assay; format: functional, cell-based; settings: not given

| Compound | Activity |
| --- | --- |
| Oc1ccc(Cl)cc1-c1cc(/C=C/c2cccc(Cl)c2)nn1-c1ccccc1 | Active |
| COc1ccc(/C=C/c2cc(-c3cc(Cl)ccc3O)n(-c3ccccc3)n2)cc1OC | Active |
| Oc1ccccc1-c1cc(/C=C/c2ccc(Cl)s2)nn1-c1ccccc1 | Active |

system: HT-1080; assay: Antiproliferative activity against human HT-1080 cells assessed as reduction in cell viability at 20 uM measured for 72 hrs by MTT assay; format: functional, cell-based; settings: not given

| Compound | Activity |
| --- | --- |
| Oc1ccc(Cl)cc1-c1cc(/C=C/c2cccc(Cl)c2)nn1-c1ccccc1 | Active |
| COc1ccc(/C=C/c2cc(-c3cc(Cl)ccc3O)n(-c3ccccc3)n2)cc1OC | Active |
| Oc1ccccc1-c1cc(/C=C/c2ccc(Cl)s2)nn1-c1ccccc1 | Active |

system: A549; assay: Cytotoxicity against human A549 cells assessed inhibition of cell growth incubated for 72 hrs by MTT assay; format: functional, cell-based; settings: A549, 72 h

| Compound | IC50 [µM] |
| --- | --- |
| Oc1ccc(Cl)cc1-c1cc(/C=C/c2cccc(Cl)c2)nn1-c1ccccc1 | 13.3 |
| COc1ccc(/C=C/c2cc(-c3cc(Cl)ccc3O)n(-c3ccccc3)n2)cc1OC | 15.3 |
| O=c1[nH]cc(F)c(=O)[nH]1 [FLUOROURACIL] | 7.6 |
| Oc1ccccc1-c1cc(/C=C/c2ccc(Cl)s2)nn1-c1ccccc1 | 21.1 |

system: not listed separately; assay: Selectivity index, ratio of IC50 for cytotoxicity against human NHDF cells to IC50 for cytotoxicity against human MCF7 cells; format: toxicity, cell-based; settings: NHDF cells and MCF7 cells, read-out: Ratio IC50

| Compound | selectivity ratio |
| --- | --- |
| Oc1ccc(Cl)cc1-c1cc(/C=C/c2cccc(Cl)c2)nn1-c1ccccc1 | 1.2 |
| COc1ccc(/C=C/c2cc(-c3cc(Cl)ccc3O)n(-c3ccccc3)n2)cc1OC | 2.5 |
| Oc1ccccc1-c1cc(/C=C/c2ccc(Cl)s2)nn1-c1ccccc1 | 1.1 |

system: SW-620; assay: Cytotoxicity against human SW620 cells assessed inhibition of cell growth incubated for 72 hrs by MTT assay; format: functional, cell-based; settings: SW-620, 72 h

| Compound | IC50 [µM] |
| --- | --- |
| Oc1ccc(Cl)cc1-c1cc(/C=C/c2cccc(Cl)c2)nn1-c1ccccc1 | 8.8 |
| COc1ccc(/C=C/c2cc(-c3cc(Cl)ccc3O)n(-c3ccccc3)n2)cc1OC | 16.1 |
| O=c1[nH]cc(F)c(=O)[nH]1 [FLUOROURACIL] | 32.5 |
| Oc1ccccc1-c1cc(/C=C/c2ccc(Cl)s2)nn1-c1ccccc1 | 16.3 |

system: not listed separately; assay: Cytotoxicity against human NHDF cells assessed inhibition of cell growth incubated for 72 hrs by MTT assay; format: toxicity, cell-based; settings: not given

| Compound | IC50 at 72 h [µM] |
| --- | --- |
| Oc1ccc(Cl)cc1-c1cc(/C=C/c2cccc(Cl)c2)nn1-c1ccccc1 | 16.2 |
| COc1ccc(/C=C/c2cc(-c3cc(Cl)ccc3O)n(-c3ccccc3)n2)cc1OC | 39.9 |
| O=c1[nH]cc(F)c(=O)[nH]1 [FLUOROURACIL] | > 50 |
| Oc1ccccc1-c1cc(/C=C/c2ccc(Cl)s2)nn1-c1ccccc1 | 18.5 |

system: MCF7; assay: Cytotoxicity against human MCF7 cells assessed inhibition of cell growth incubated for 72 hrs by MTT assay; format: functional, cell-based; settings: MCF7, 72 h

| Compound | IC50 [µM] |
| --- | --- |
| Oc1ccc(Cl)cc1-c1cc(/C=C/c2cccc(Cl)c2)nn1-c1ccccc1 | 8.1 |
| COc1ccc(/C=C/c2cc(-c3cc(Cl)ccc3O)n(-c3ccccc3)n2)cc1OC | 9.6 |
| Oc1ccccc1-c1cc(/C=C/c2ccc(Cl)s2)nn1-c1ccccc1 | 14.5 |
